Laboratory results reported in patent US10925876B2, “Methods for using triazolo-pyrazinyl soluble guanylate cyclase activators in fibrotic disorders” (Merck Sharp & Dohme Corp., priority 2016, dated 2021).

Assays:
[1] = target: T1, sGC α1/β1 heterodimer (Homo sapiens, UniProt Q02108+Q02153); experiment: Cell-Based sGC Functional Assay (CASA Assay), cGMP generation in CHO-K1/sGC cells;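 also: reference Compound A is a published heme-dependent sGC activator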; details: maximum cGMP production of Compound A set to 100% activation, read-out: % Act. (percent activation relative to Compound A)
T1 construct: expressed in transfected cells
T1 sequence (Q02108 1-690): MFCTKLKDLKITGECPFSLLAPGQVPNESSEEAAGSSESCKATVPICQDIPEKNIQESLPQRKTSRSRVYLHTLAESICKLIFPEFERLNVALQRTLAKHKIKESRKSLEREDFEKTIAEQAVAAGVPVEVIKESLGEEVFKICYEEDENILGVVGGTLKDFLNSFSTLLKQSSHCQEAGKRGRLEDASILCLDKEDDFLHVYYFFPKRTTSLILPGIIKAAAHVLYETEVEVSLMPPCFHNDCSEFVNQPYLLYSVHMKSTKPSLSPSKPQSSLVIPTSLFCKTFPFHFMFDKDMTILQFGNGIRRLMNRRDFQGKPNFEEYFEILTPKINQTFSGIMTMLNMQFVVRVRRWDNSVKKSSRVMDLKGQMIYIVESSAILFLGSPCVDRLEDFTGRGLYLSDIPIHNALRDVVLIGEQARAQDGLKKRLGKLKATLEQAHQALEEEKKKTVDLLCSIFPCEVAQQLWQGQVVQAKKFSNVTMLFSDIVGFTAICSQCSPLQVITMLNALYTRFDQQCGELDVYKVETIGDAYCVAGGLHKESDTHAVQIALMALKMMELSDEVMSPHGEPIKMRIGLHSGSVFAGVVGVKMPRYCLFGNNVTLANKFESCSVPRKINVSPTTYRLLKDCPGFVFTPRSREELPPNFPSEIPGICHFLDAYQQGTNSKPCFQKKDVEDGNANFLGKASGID
T1 sequence (Q02153 1-619): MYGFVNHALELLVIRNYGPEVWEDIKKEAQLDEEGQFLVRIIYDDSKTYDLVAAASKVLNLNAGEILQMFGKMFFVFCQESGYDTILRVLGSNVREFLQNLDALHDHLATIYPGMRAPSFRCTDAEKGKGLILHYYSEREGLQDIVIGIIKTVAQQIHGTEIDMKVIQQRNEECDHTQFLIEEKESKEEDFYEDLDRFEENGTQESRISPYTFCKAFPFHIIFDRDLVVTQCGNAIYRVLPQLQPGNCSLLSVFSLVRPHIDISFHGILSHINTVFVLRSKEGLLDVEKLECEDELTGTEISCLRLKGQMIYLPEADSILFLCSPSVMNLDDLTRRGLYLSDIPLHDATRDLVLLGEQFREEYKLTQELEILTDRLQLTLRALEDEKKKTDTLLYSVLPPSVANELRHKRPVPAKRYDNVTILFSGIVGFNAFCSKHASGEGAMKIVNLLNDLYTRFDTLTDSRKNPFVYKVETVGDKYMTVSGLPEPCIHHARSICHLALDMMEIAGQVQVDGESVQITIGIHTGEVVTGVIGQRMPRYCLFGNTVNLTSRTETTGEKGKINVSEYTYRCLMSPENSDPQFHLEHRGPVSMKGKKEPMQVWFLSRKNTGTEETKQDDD
In short: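 CHO-K1 cells stably expressing human sGC α1/β1, 4×10^5/mL in EBSS with 5 mM MgCl2, 10 mM HEPES, 0.05% BSA, 0.5 mM IBMX, 2.5% DMSO; compounds 1 h at 37 °C ± 1 μM DETA-NO. cGMP by HTRF, expressed as % of reference Compound A maximum; IP and max fold induction from 4P fit.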

[2] = test system: Spontaneously hypertensive rats (SHR); experiment: Acute Efficacy in Spontaneously Hypertensive Rats (SHR), telemetry blood pressure; type: in vivo, rat; details: single oral gavage
Description: Spontaneously hypertensive rats (SHR, male, Charles River) were implanted with DSI TA11PA-C40 telemetry device (Data Sciences, Inc., St. Paul, Minn.) under isoflurane or ketamine/metomidine anesthesia. The telemetry unit catheter was inserted into the descending aorta via the femoral artery and the telemetry device was implanted subcutaneously in the left flank area. Animals were allowed to recover from surgery for 14 days before the start of any studies. Blood pressure, heart rate, and activity signals from conscious, freely moving rats were recorded continuously for 30 seconds every 10 minutes. On the day prior to administration of compound, a single oral dose of vehicle (10% transcutol/20% Cremophor/70% water) was administered to all animals to establish baseline control data. The blood pressure lowering efficacy of compound (PO) or vehicle was evaluated following a single oral gavage. Data were collected as hourly averages, and changes in blood pressure were calculated by subtracting control baseline data on an hourly basis. Animals were maintained on normal diet with a 12 hour light-dark cycle.
Maximum peak decreases of systolic blood pressure (SBP) in SHR at a particular P.O. dose (mpk milligrams per kilogram) for the following representative compounds are provided. Category A=SBP in SHRs <20 mmHg; Category B=SBP in SHRs 20-40 mmHg; Category C=SBP in SHRs >40 mmHg.

Emax [1] [%] | SMILES | Maximum peak decrease of systolic blood pressure (SBP) in SHR, Cat. ([2]; P.O. 1 mpk) | Maximum peak decrease of systolic blood pressure (SBP) in SHR, Cat. ([2]; P.O. 0.3 mpk) | Maximum peak decrease of systolic blood pressure (SBP) in SHR, Cat. ([2]; P.O. 2 mpk)
119 | CC1(c2cncc(F)c2)C(=O)Nc2nc(-c3cn4ncnc4c(CCC(F)(F)C(F)(F)F)n3)nc(N)c21 (stereo not drawn) [Example 9A, 4-amino-5-(5-fluoropyridin-3-yl)-5-methyl-2-(8-(3,3,4,4,4-pentafluorobutyl)-[1,2,4]triazolo[1,5-a]pyrazin-6-yl)-5H-pyrrolo[2,3-d]pyrimidin-6(7H)-one] | B (Category B=SBP in SHRs 20-40 mmHg) | – | –
104 | CCCCc1nc(-c2nc(N)c3c(n2)NC(=O)C3(c2ccc(F)c(F)c2)C2CC2)cn2ncnc12 (stereo not drawn) [Example 65A, 4-amino-2-(8-butyl-[1,2,4]triazolo[1,5-a]pyrazin-6-yl)-5-cyclopropyl-5-(3,4-difluorophenyl)-5H-pyrrolo[2,3-d]pyrimidin-6(7H)-one] | – | C (Category C=SBP in SHRs >40 mmHg) | –
131 | CC(C)n1cc(C2(C)C(=O)Nc3nc(-c4cn5ncnc5c(CCC(F)(F)C(F)(F)F)n4)nc(N)c32)nn1 (stereo not drawn) [Example 20A, 4-amino-5-(1-isopropyl-1H-1,2,3-triazol-4-yl)-5-methyl-2-(8-(3,3,4,4,4-pentafluorobutyl)-[1,2,4]triazolo[1,5-a]pyrazin-6-yl)-5H-pyrrolo[2,3-d]pyrimidin-6(7H)-one] | C (Category C=SBP in SHRs >40 mmHg) | – | –
82 | CC1(c2ccccn2)C(=O)Nc2nc(-c3cn4ncnc4c(CCCC(F)(F)F)n3)nc(N)c21 (stereo not drawn) [Example 36B, 4-amino-5-methyl-5-(pyridin-2-yl)-2-(8-(4,4,4-trifluorobutyl)-[1,2,4]triazolo[1,5-a]pyrazin-6-yl)-5H-pyrrolo[2,3-d]pyrimidin-6(7H)-one] | B (Category B=SBP in SHRs 20-40 mmHg) | – | –
134 | CC1(c2ccc(Cl)cn2)C(=O)Nc2nc(-c3cn4ncnc4c(CCCC(F)(F)F)n3)nc(O)c21 (stereo not drawn) [Example 134A, 5-(5-chloropyridin-2-yl)-4-hydroxy-5-methyl-2-(8-(4,4,4-trifluorobutyl)-[1,2,4]triazolo[1,5-a]pyrazin-6-yl)-5H-pyrrolo[2,3-d]pyrimidin-6(7H)-one] | B (Category B=SBP in SHRs 20-40 mmHg) | – | –
112 | CC1(c2ccc(C(F)(F)F)cc2)C(=O)Nc2nc(-c3cn4ncnc4c(CCC(F)(F)F)n3)nc(N)c21 (stereo not drawn) [Example 77B, 4-amino-5-methyl-5-(4-(trifluoromethyl)phenyl)-2-(8-(3,3,3-trifluoropropyl)-[1,2,4]triazolo[1,5-a]pyrazin-6-yl)-5H-pyrrolo[2,3-d]pyrimidin-6(7H)-one] | A (Category A=SBP in SHRs <20 mmHg) | – | –
124 | C[C@@]1(c2ccc(F)cc2)C(=O)Nc2nc(-c3cn4ncnc4c(CCC(F)(F)C(F)(F)F)n3)nc(O)c21 [Example 119A, (S)-5-(4-fluorophenyl)-4-hydroxy-5-methyl-2-(8-(3,3,4,4,4-pentafluorobutyl)-[1,2,4]triazolo[1,5-a]pyrazin-6-yl)-5,7-dihydro-6H-pyrrolo[2,3-d]pyrimidin-6-one] | B (Category B=SBP in SHRs 20-40 mmHg) | – | –
131 | CC1(c2ccc(C(F)(F)F)cn2)C(=O)Nc2nc(-c3cn4ncnc4c(CCCC(F)(F)F)n3)nc(N)c21 (stereo not drawn) [Example 25B, 4-amino-5-methyl-2-(8-(4,4,4-trifluorobutyl)-[1,2,4]triazolo[1,5-a]pyrazin-6-yl)-5-(5-(trifluoromethyl)pyridin-2-yl)-5H-pyrrolo[2,3-d]pyrimidin-6(7H)-one] | – | B (Category B=SBP in SHRs 20-40 mmHg) | –
104 | Cc1nc2c(CCC(F)(F)C(F)(F)F)nc(-c3nc(N)c4c(n3)NC(=O)C4(C)c3nnc(C4CC4)o3)cn2n1 (stereo not drawn) [Example 103A, 4-amino-5-(5-cyclopropyl-1,3,4-oxadiazol-2-yl)-5-methyl-2-(2-methyl-8-(3,3,4,4,4-pentafluorobutyl)-[1,2,4]triazolo[1,5-a]pyrazin-6-yl)-5H-pyrrolo[2,3-d]pyrimidin-6(7H)-one] | – | – | A (Category A=SBP in SHRs <20 mmHg)
133 | O=C1Nc2nc(-c3cn4ncnc4c(CCCC(F)(F)F)n3)nc(O)c2C1(c1ccc(F)c(F)c1)C1CC1 (stereo not drawn) [Example 141A, 5-cyclopropyl-5-(3,4-difluorophenyl)-4-hydroxy-2-(8-(4,4,4-trifluorobutyl)-[1,2,4]triazolo[1,5-a]pyrazin-6-yl)-5H-pyrrolo[2,3-d]pyrimidin-6(7H)-one] | B (Category B=SBP in SHRs 20-40 mmHg) | – | –
101 | CC1(c2ccc(C(F)(F)F)cn2)C(=O)Nc2nc(-c3cn4ncnc4c(CCCC(F)(F)F)n3)nc(C(N)=O)c21 (stereo not drawn) [Example 179B, 5-methyl-6-oxo-2-(8-(4,4,4-trifluorobutyl)-[1,2,4]triazolo[1,5-a]pyrazin-6-yl)-5-(5-(trifluoromethyl)pyridin-2-yl)-6,7-dihydro-5H-pyrrolo[2,3-d]pyrimidine-4-carboxamide] | – | B (Category B=SBP in SHRs 20-40 mmHg) | –
168 | C[C@@]1(c2ccc(F)cc2)C(=O)Nc2nc(-c3cn4ncnc4c(CCC(F)(F)C(F)(F)F)n3)nc(C(N)=O)c21 [Example 177A, 5-(4-Fluorophenyl)-5-methyl-6-oxo-2-(8-(3,3,4,4,4-pentafluorobutyl)-[1,2,4]triazolo[1,5-a]pyrazin-6-yl)-6,7-dihydro-5H-pyrrolo[2,3-d]pyrimidine-4-carboxamide] | C (Category C=SBP in SHRs >40 mmHg) | – | –
120 | CC1(c2ccc(Cl)cc2)C(=O)Nc2nc(-c3cn4ncnc4c(CCC(F)(F)F)n3)nc(N)c21 (stereo not drawn) [Example 76A, 4-amino-5-(4-chlorophenyl)-5-methyl-2-(8-(3,3,3-trifluoropropyl)-[1,2,4]triazolo[1,5-a]pyrazin-6-yl)-5H-pyrrolo[2,3-d]pyrimidin-6(7H)-one] | – | A (Category A=SBP in SHRs <20 mmHg) | –
176 | CC(C)Cc1nc(-c2ncc3c(n2)NC(=O)[C@@]3(C)c2ccc(F)cc2)cn2ncnc12 [Example 173A, (S)-5-(4-fluorophenyl)-2-(8-isobutyl-[1,2,4]triazolo[1,5-a]pyrazin-6-yl)-5-methyl-5,7-dihydro-6H-pyrrolo[2,3-d]pyrimidin-6-one] | A (Category A=SBP in SHRs <20 mmHg) | – | –
95 | Nc1nc(-c2cn3ncnc3c(CCCC(F)(F)F)n2)nc2c1C(c1nnc(C(F)(F)F)o1)(C1CC1)C(=O)N2 (stereo not drawn) [Example 106A, 4-amino-5-cyclopropyl-2-(8-(4,4,4-trifluorobutyl)-[1,2,4]triazolo[1,5-a]pyrazin-6-yl)-5-(5-(trifluoromethyl)-1,3,4-oxadiazol-2-yl)-5H-pyrrolo[2,3-d]pyrimidin-6(7H)-one] | – | C (Category C=SBP in SHRs >40 mmHg) | –
